Assay results as given in publication PMC8620715, “Biological Activity of Triazolopyrimidine Copper(II) Complexes Modulated by an Auxiliary N-N-Chelating Heterocycle Ligands” (Molecules, 2021).
Like-named read-outs stand apart in the source and are kept apart here.

Experiments:
[1] = test system: BJ normal cell line (human fibroblast cells); test: MTT cell viability assay, BJ normal cells; assay type: cell-based; details: for IC50 / reduction of BJ cell viability at the highest concentration: BJ
Procedure: Human fibroblast cells (BJ—ATCC CRL-2522, USA) were grown in minimal essential medium (MEM) supplemented with 2 mM L-Glutamine, 10% fetal calf serum (FCS), 100 units/mL of penicillin, and 100 µg/mL of streptomycin at 37 °C in a humidified incubator under an atmosphere containing 5% CO2. Mouse melanoma cells (B16—ATCC CRL—6475, USA) were grown in DMEM (Dulbecco’s Modified Eagle Medium) supplemented with similar reagents as MEM. All cell cultivation media and reagents were purchased from Biochrom AG (Berlin, Germany) and Sigma-Aldrich (Darmstadt, Germany).
Cell viability was evaluated using 3-(4,5-dimethylthiazol-2-yl)-2,5-diphenyltetrazolium bromide (MTT) assay as described previously. First, the cells were seeded in 96-well plates (20000 cells/well) and cultured for 24 h in medium. […] The negative control was represented by cells cultivated in a medium without the investigated compounds. Following incubation, the medium was changed, and the MTT solution was added to each well to a final concentration of 1 mg/mL and incubated for an additional 4 h, at 37 °C. Finally, the medium was collected, and DMSO was used to dissolve the insoluble formazan product. The absorbance of the samples was recorded at 570 nm using a plate reader Mithras 940 (Berthold). The data were corrected for the background, and the percentage of viable cells was obtained using the equation:Cell viability = [(A570 of treated cells)/(A570 of untreated cells)] × 100%(1)
The half-maximal inhibitory concentration (IC50) was determined by fitting the data with a sigmoidal logistical equation using the software Origin 8.1 (Microcal Inc., Los Angeles, CA, USA).

[2] = test system: BJ cells; test: Cell morphology by fluorescence microscopy (phalloidin staining), BJ cells; assay type: cell-based, human; details: 24 h
Procedure: (§1) The morphological changes induced by the treatment of the BJ and B16 cell lines with the tested compounds at two different concentrations (2.5 and 10 µg/mL) applied for 24 h were investigated by fluorescence microscopy.
(§2) According to the manufacturer protocol, the cytoskeleton actin filaments of BJ and B16 cells were stained with phalloidin-FITC (Sigma-Aldrich, St. Louis, MO, USA). Briefly, cells were washed with PBS (5 min, 3 times), fixed for 5 min with 3% paraformaldehyde, washed three times with PBS, permeabilized with 0.1% Triton X-100 in PBS for 15 min, washed three times with PBS, stained with 20 μg/mL phalloidin-FITC at room temperature for 1 h and rewashed three times with PBS. The cell nucleus was stained with 8 μM of Hoechst 33342 solution for 10 min, washed three times with PBS, and finally, mounted and sealed on glass slides with FluorSave™ Reagent (Merck Millipore, Germany). The fluorescence images were acquired using an Andor DSD2 Confocal Unit (Andor, Ireland), mounted on an epifluorescence microscope, Olympus BX-51 (Olympus, Germany), equipped with a 40x and 100x objective and an appropriate DAPI/Hoechst filter cube (excitation filter 390/40 […], dichroic mirror 405 nm and emission filter 452/45 nm) and GFP/FITC filter cube (excitation filter 466/40 nm, dichroic mirror 488 nm and emission filter 525/54 nm).

[3] = test system: plasmid pRSII325; test: Nuclease activity assay (gel electrophoresis); assay type: biochemical; details: 37 °C; for DNA cleavage in the presence of H2O2: 0.1 and 0.5 mM complex + 1 mM H2O2, 1 h; for DNA cleavage in the presence of ascorbate: 0.1 and 0.5 mM complex + 1 mM ascorbate; for DNA cleavage in the presence of ascorbate / DNA cleavage, complex alone: 1 h; for DNA cleavage, complex alone: 0.1 and 0.5 mM
Procedure: To investigate the DNA cleavage activity of the two Cu(II) complexes, plasmidial DNA was incubated with (1) and (2), both in the absence or in the presence of activating agents, such as H2O2 or ascorbate. Exposure of DNA to the Cu(II) complexes in the presence of H2O2 exploits the CuII/III redox couple, while in the presence of ascorbate, the CuI/II redox couple is exploited. The nuclease activity of copper(II) complexes (1) and (2) was tested on plasmid pRSII325, which is a 6835 bp (base pair) circular plasmid. Gel electrophoresis of purified pRSII325 identified two main bands belonging to the supercoiled (SC) plasmid, which migrates faster, and the nicked-circular (NC) plasmid, which migrates slower (Figure 12, lane 1).
The nuclease activity of the compounds was determined using plasmid […] DNA, which was a gift from Steven Haase (Addgene plasmid #35467, 6835 base pairs). The plasmid was amplified in Escherichia coli by transforming One Shot® TOP10 chemically competent E. coli (Invitrogen, Thermo Fisher Scientific). The plasmid was isolated from positive colonies using a PureLink™ HiPure Plasmid Miniprep Kit (Invitrogen, Thermo Fisher Scientific). Plasmid (200 ng/sample) was exposed to complexes (1) and (2) in the presence of 1 mM hydrogen peroxide (to exploit the Cu(II/III) redox couple) or 1 mM ascorbic acid (to exploit the Cu(I/II) redox couple). The DNA cleavage experiments were done in a 9/1 (v/v) ratio of 50 mM Tris-HCl, pH 8, and DMSO. The samples were incubated for 1 h at 37 °C before a bromophenol blue/xylene cyanol-based loading dye (Roth, Germany) was added. The samples were loaded onto a 1% (w/v) agarose gel containing 1 μg/mL EtBr in 1 × TBE (Tris–boric acid–EDTA) buffer. Electrophoresis was performed at 50 V for 60 min in 1 × TBE buffer. The images of the fluorescent ethidium bromide-stained gels were captured using a gel documentation system (Doc-Print II, VilberLourmat, France). The cleavage experiments were done three times, with similar results. One representative gel is shown.

[4] = test system: B16 cells; test: Cell morphology by fluorescence microscopy (phalloidin staining), B16 cells; assay type: cell-based, mouse; details: 24 h
Procedure: as §1, §2

[5] = test system: E. coli 25922; test: Biofilm formation on polystyrene (crystal violet), MBEC; assay type: cell-based, Escherichia coli; details: E. coli 25922, biofilm
Procedure: The antibacterial assays were carried out using two Gram-negative (Escherichia coli ATCC 25922, Pseudomonas aeruginosa ATCC 27853) and two Gram-positive (Staphylococcus aureus ATCC 25923, MRSA (meticillin-Resistant S. aureus) 388 (ATCC, American Type Culture Collection) bacteria.
The method for assessment of biofilm formation on polystyrene microtiter plates was based on previously published protocols. The absorbance at 490 nm was measured with an Apollo LB 911ELISA (Berthold Technologies GmbH & Co. KG, Waltham, MA, USA) reader. The minimal biofilm-eradication concentration (MBEC) was defined as the lowest concentration of antibiotics required to eradicate the biofilm. All experiments were performed in triplicate.

[6] = 2.5 µg/mL (2.84 μM and 2.76 μM for the complexes)

SMILES	effect on viability of BJ cells ([1]; range of tested concentrations, 24 h and 48 h)	morphological changes of BJ cells ([2]; 2.5 and 10 µg/mL)	DNA cleavage in the presence of H2O2 [3]	DNA cleavage in the presence of ascorbate [3]	DNA cleavage, complex alone [3]	morphological changes of B16 cells [4, 6]	MBEC [5] [mM]	IC50 ([1]; 24 h) [µg/mL]	reduction of BJ cell viability at the highest concentration ([1]; 24 h)	IC50 ([1]; 24 h, read-out: IC50) [µM]	IC50 ([1]; 48 h) [µg/mL]	reduction of BJ cell viability at the highest concentration ([1]; 48 h)	IC50 ([1]; 48 h, read-out: IC50) [µM]	morphological changes of BJ cells ([2]; 10 μg/mL (11.05 µM))	morphological changes of B16 cells ([4]; 10 μg/mL (11.05 µM))
Cc1cc(C)n2ncnc2n1.Cc1cc(C)n2ncnc2n1.Cc1cc(C)n2ncnc2n1.O.[Cu+2].[O-][Cl+3]([O-])([O-])[O-].[O-][Cl+3]([O-])([O-])[O-].c1ccc(-c2ccccn2)nc1 [Complex (1), [Cu(bpy)(dmtp)2(OH2)](ClO4)2·dmtp]	not affected	no effect was observed	led to DNA degradation	led to DNA degradation	caused plasmid relaxation to the NC form	not altered	0.71								
Cc1cc(C)n2ncnc2n1.Cc1cc(C)n2ncnc2n1.Cc1cc(C)n2ncnc2n1.O.[Cu+2].[O-][Cl+3]([O-])([O-])[O-].[O-][Cl+3]([O-])([O-])[O-].c1cnc2c(c1)ccc1cccnc12 [Complex (2), [Cu(phen)(dmtp)2(OH2)](ClO4)2·dmtp]			H2O2 strongly enhancing the nuclease activity	a higher concentration of (2) was needed for full nuclease activity	caused plasmid relaxation to the NC form	not altered	0.17	13.61	up to 45%	15	4.50	up to 10%	4.97	affected the cellular morphology	significant changes
